EP0315097A2, “Acyl labdane derivatives, process for their preparation and their use as medicines” (HOECHST AKTIENGESELLSCHAFT, priority 1987, dated 1989)
≈ marks a conversion by molar mass, not a printed value.

What was measured:
[1] = system: Meerschweinchenvorhof; assay: Positive inotropic activity, contraction force of isolated electrically stimulated guinea pig atrium; set-up: species or system Meerschweinchen; conditions: isolated left and right atria, Ringer-Lösung, 32 C, contraction force recorded 7 bis 10 Minuten
From the text: Dafür wurde folgende Methode angewandt.
400 g schwere Meerschweinchen beider Geschlechter werden getötet, das Herz entnommen und bei Raumtemperatur in Ringer-Lösung eingebracht. Sowohl der linke als auch der rechte Vorhof werden dann isoliert, an einem Organhalter befestigt und in eine Ringer-Lösung enthaltendes, bei einer Temperatur von 32 C gehaltenes Bad eingebracht. In das Organbad läßt man ein Gemisch von 95 % O2 und 5 % C02 einperlen. Dann stimuliert man den Vorhof elektrisch. Die zu prüfende erfindungsgemäße Verbindung wird in Wasser zu einer Lösung bekannter Konzentration gelöst und dem Bad zugesetzt. Die Kontraktionskraft des Vorhofs wird 7 bis 10 Minuten lang über einen isometrischen Dehnungsmeßstreifen auf einem 4-Kanal-Schreiber von Nihon Kohden registriert. Die Aktivität wird gemäß den erhaltenen Daten als ECso ausgedrückt.
Die bei diesem Modell für repräsentative erfindungsgemäße Verbindungen erhaltenen Ergebnisse sind in der nachfolgenden Tabelle aufgeführt.

[2] = system: Katze; assay: Blood pressure lowering in the anaesthetised cat, femoral artery pressure; type: in vivo; conditions: for Abfall d. BD: Chloralose-Narkose; for Dauer: duration of the blood pressure lowering effect
From the text: 3 bis 4 kg schwere Katzen beider Geschlechter werden mit Äther anästhesiert und unter Chloralose-Narkose (70 mgkg i.v.) gehalten. Sowohl die Oberschenkel-Arterie als auch die -Vene werden zur Aufzeichnung des Blutdrucks bzw. zur Verabreichung der Arzneimittel mit Kanülen versehen. Der Blutdruck in der Oberschenkelarterie wird über einen Druckaufnehmer Statham P 23 Db auf einem Nihon-Kohden-Schreiber für physiologische Zwecke ausgezeichnet. Die zu prüfende Verbindung wird in destilliertem Wasser gelöst und intravenös verabreicht. Der Blutdruckabfall und die Dauer der blutdrucksenkenden Wirkung werden notiert.
(§1) Die bei diesem Modell für repräsentative erfindungsgemäße Verbindungen erhaltenen Ergebnisse sind in der nachfolgenden Tabelle aufgeführt: […]

[3] = system: wachen Kaninchen; assay: Intraocular pressure (IOD) measurement in the conscious rabbit, Schioetz tonometer; type: in vivo; conditions: Dosis Prozent 2 (2 %ige Lösung, 100 µl instilled into one eye); for IOD-senkende Wirkung % Abnahme des IOD: decrease calculated from the baseline value; for IOD-senkende Wirkung Dauer: duration of the IOD-lowering effect
From the text: Für diesen Versuch werden 2 bis 3 kg schwere Kaninchen beider Geschlechter verwendet. Der intraokulare Druck (IOD) wird mit einem Schioetz-Tonometer nach Hornhaut-Anästhesie mit 2 %iger Novocainlösung gemessen. Zur Herstellung einer 2 %igen Lösung wird eine erfindungsgemäße Verbindung unter Verwendung der stöchiometrischen Menge 0,1 n-HCI, bzw. deren Salz direkt in Wasser gelöst. Nach Ermittlung des Ausgangswertes werden 100 u.l der Lösung der Testverbindung in eines der Augen, das Vehikel in das andere Auge instilliert. Der IOD wird in bestimmten Zeitabständen, d.h. 0,5; 1, 2, 3, 4 und 5 Stunden gemessen. Die prozentuale Abnahme des IOD wird anhand des Ausgangswertes berechnet.
as §1

Q: With `C=C[C@@]1(C)CC(=O)[C@]2(O)[C@@]3(C)[C@@H](O)CCC(C)(C)[C@@H]3[C@H](OC(=O)CN3CCCCC3)[C@H](OC(=O)N(CC)CC)[C@@]2(C)O1` [R6=COCH2N[drawing], R7=CON(C2H5)2] as the compound, how does the EC50 [1] read?
A: Its EC50 is 0.44 µg/mL (≈ 0.742 µM).

Q: For `C=C[C@@]1(C)CC(=O)[C@]2(O)[C@@]3(C)[C@@H](O)CCC(C)(C)[C@@H]3[C@H](OC(=O)CCN3CCCCC3)[C@H](OC(=O)N(CC)CC)[C@@]2(C)O1` [R6=[drawing], R7=CON(C2H5)2 (the 5th table, row 3)], which “Abfall d. BD” value ([2]; Dosis 1 mg/kg intravenös) is on record?
A: Its value is 20.

Q: And the Dauer ([2]; Dosis 1 mg/kg intravenös)?
A: The Dauer was 60 min.

Q: How did the “Abfall d. BD” value ([2]; Dosis 3 mg/kg intravenös) turn out when `C=C[C@@]1(C)CC(=O)[C@]2(O)[C@@]3(C)[C@@H](O)CCC(C)(C)[C@@H]3[C@H](OC(=O)CN3CCCCC3)[C@H](OC(=O)OCC)[C@@]2(C)O1` [R6=[drawing], R7=COOC2H5 (the 5th table, row 4)] was run?
A: Its value is 60.

Q: What about the Dauer ([2]; Dosis 3 mg/kg intravenös) of the same compound?
A: Its Dauer is 60 min.

Q: Which EC50 [1] does the source give for `C=C[C@@]1(C)CC(=O)[C@]2(O)[C@@]3(C)[C@@H](O)CCC(C)(C)[C@@H]3[C@H](OC(=O)CN3CCCCC3)[C@H](OC(=O)OCC)[C@@]2(C)O1` [R6=COCH2N[drawing], R7=COOC2H5] here?
A: Its EC50 is 1.6 µg/mL (≈ 2.83 µM).

Q: With `C=C[C@@]1(C)CC(=O)[C@]2(O)[C@@]3(C)[C@@H](O)CCC(C)(C)[C@@H]3[C@H](OC(=O)CCN3CCCCC3)[C@H](OC(=O)N(CC)CC)[C@@]2(C)O1` [R6=[drawing], R7=CON(C2H5)2 (the 4th table, row 3)] as the compound, how does the “IOD-senkende Wirkung % Abnahme des IOD” value [3] read?
A: Its value is 25%.

Q: What about the “IOD-senkende Wirkung Dauer” value [3] of the same compound?
A: Its value is 360 min.

Q: Which results are given for `C=C[C@@]1(C)CC(=O)[C@]2(O)[C@@]3(C)[C@@H](O)CCC(C)(C)[C@@H]3[C@H](OC(=O)CN3CCCCC3)[C@H](OC(=O)N(CC)CC)[C@@]2(C)O1` [R6=[drawing], R7=CON(C2H5)2 (the 4th table, row 5)]?
A: IOD-senkende Wirkung % Abnahme des IOD [3]: 20%; IOD-senkende Wirkung Dauer [3]: 420 min

Q: For `C=C[C@@]1(C)CC(=O)[C@]2(O)[C@@]3(C)[C@@H](O)CCC(C)(C)[C@@H]3[C@H](OC(=O)CCN3CCCCC3)[C@H](OC(=O)OCC)[C@@]2(C)O1` [R6=[drawing], R7=COOC2H5 (the 4th table, row 2)], which “IOD-senkende Wirkung % Abnahme des IOD” value [3] is on record?
A: The value was 20%.

Q: And the “IOD-senkende Wirkung Dauer” value [3]?
A: The value was 300 min.

Q: With `C=C[C@@]1(C)CC(=O)[C@]2(O)[C@@]3(C)[C@@H](O)CCC(C)(C)[C@@H]3[C@H](OC(=O)CN3CCCCC3)[C@H](OC(=O)N(CC)CC)[C@@]2(C)O1` [R6=[drawing], R7=CON(C2H5)2 (the 5th table, row 5)] as the compound, how does the “Abfall d. BD” value ([2]; Dosis 1 mg/kg intravenös) read?
A: The value was 50.

Q: What about the Dauer ([2]; Dosis 1 mg/kg intravenös) of the same compound?
A: The Dauer was 20 min.

Q: Which EC50 [1] does the source give for `C=C[C@@]1(C)CC(=O)[C@]2(O)[C@@]3(C)[C@@H](O)CCC(C)(C)[C@@H]3[C@H](OC(=O)CCN3CCCCC3)[C@H](OC(=O)N(CC)CC)[C@@]2(C)O1` [R6=CO(CH2)2N[drawing], R7=CON(C2H5)2] here?
A: The EC50 was 0.79 µg/mL (≈ 1.3 µM).

Q: How did the “IOD-senkende Wirkung % Abnahme des IOD” value [3] turn out when `C=C[C@@]1(C)CC(=O)[C@]2(O)[C@@]3(C)[C@@H](O)CCC(C)(C)[C@@H]3[C@H](OC(=O)CN3CCCCC3)[C@H](OC(=O)OCC)[C@@]2(C)O1` [R6=[drawing], R7=COOC2H5 (the 4th table, row 4)] was run?
A: Its value is 0%.

Q: Which “Abfall d. BD” value ([2]; Dosis 1 mg/kg intravenös) does the source give for `C=C[C@@]1(C)CC(=O)[C@]2(O)[C@@]3(C)[C@@H](O)CCC(C)(C)[C@@H]3[C@H](OC(=O)CCN3CCCCC3)[C@H](OC(=O)OCC)[C@@]2(C)O1` [R6=[drawing], R7=COOC2H5 (the 5th table, row 2)] here?
A: Its value is 40.

Q: And the Dauer ([2]; Dosis 1 mg/kg intravenös)?
A: The Dauer was >20 min.
